According to paper PMC3616073, “Engineering Agatoxin, a Cystine-Knot Peptide from Spider Venom, as a Molecular Probe for In Vivo Tumor Imaging” (PLoS ONE, 2013):
Where two headings read alike, the source gives them in different places. Where a SMILES comes first, the peptide text is derived from it. Bridges are numbered along the chain shown (N, C = ends).

Experiments:
[1] = target: T1, αvβ3 integrins expressed on U87MG glioblastoma cells (Homo sapiens, UniProt P05106+P06756); experiment: Competition binding assay on U87MG glioblastoma cells (FLAG-AgRP 7A competitor, flow cytometry); details: competition with 5 nM FLAG-AgRP 7A, 5×10^4 U87MG cells in IBB, 4 hr at 4 °C, mean of three experiments ± SD
T1 construct: U87MG glioblastoma cells, which express high levels of αvβ3 integrin receptors; host or cells: U87MG human glioblastoma cells
Source text: For simplicity, we chose to move forward with AgTx 7C ΔR21 for in vivo molecular imaging studies. To visualize tumor targeting and tissue biodistribution, we conjugated the near-infrared dye Alexa Fluor 680 (AF680) to the N-terminal amino group of AgTx 7C ΔR21 (Fig. S3A). We also synthesized AF680-labeled versions of AgRP 7C and EETI 2.5F for comparison studies. AF680-labeled EETI RDG, which contains a scrambled integrin recognition sequence, [30], served as a non-binding control. AF680-labeled knottin peptides were purified by RP-HPLC and had the expected masses for the addition of one dye molecule (Fig. S3B, C). Competition binding assays were used to determine if AF680 conjugation affected integrin recognition. FLAG-AgRP 7A was used to compete for knottin binding to U87MG human glioblastoma cells (Fig. 4).
Figure 4 Unlabeled and AF680-labeled knottins bind U87MG cells with high affinity. […]
Competition binding assays were performed on K562 leukemia cells transfected to express high levels of αvβ3 integrins. […] Cells were washed with BPBS and analyzed by flow cytometry on a FACSCalibur instrument (BD Biosciences), and data was quantified using FlowJo software (TreeStar). IC50 values were determined by nonlinear regression analysis using KaleidaGraph (Synergy Software). […]

[2] = target: T2, αvβ3 integrin on K562-αvβ3 cells (Homo sapiens, UniProt P05106+P06756); experiment: Competition binding assay on K562-αvβ3 cells (FLAG-AgRP 7A competitor, flow cytometry); details: competition with 0.5 nM FLAG-AgRP 7A, 5×10^4 K562-αvβ3 cells in IBB, 4 hr at 4 °C, anti-FLAG flow cytometry, mean of three experiments ± SD, read-out: IC50 (relative binding affinity to K562-αvβ3 cells)
T2 construct: expressed in transfected cells; host or cells: K562 leukemia cells (courtesy of S. Blystone)
Source text: Competition binding assays were used to measure the relative affinities of the AgTx 7C variants and AgRP 7C to K562 leukemia cells transfected to express high levels of αvβ3 integrin [50]. […] FLAG-AgRP 7A contains an N-terminal FLAG epitope tag (DYKDDDDK), which allows detection of cell surface binding by flow cytometry using a fluorescently labeled anti-FLAG antibody.
Figure 3 Engineered AgTx 7C variants bind to K562-αvβ3 cells with similar IC50 values. Varying concentrations of AgRP 7C and AgTx 7C variants were incubated with FLAG-AgRP 7A and allowed to compete for binding to integrin receptors expressed on the surface of K562-αvβ3 cells. Representative competition binding curves are shown, and are plotted as knottin concentration versus the fraction of FLAG-AgRP 7A bound. IC50 values reported as mean of three experiments ± SD. TEXT PRINTED IN THE PICTURE: AgRP 7C: IC50 (nM): 2.2 ± 1.0 | AgTx 7C ΔR21: IC50 (nM): 2.3 ± 0.5 | AgTx 7C P22G R24I: IC50 (nM): 8.1 ± 1.6 | AgTx 7C ΔR21 P22G R24I: IC50 (nM): 5.1 ± 1.6 | AgTx 7C ΔR9: IC50 (nM): 2.5 ± 0.4
Competition binding assays were performed on K562 leukemia cells transfected to express high levels of αvβ3 integrins. Varying concentrations of AgRP 7C and AgTx variants were incubated with 5×10^4 K562-αvβ3 cells in IBB for 4 hr at 4 °C, along with a constant concentration (0.5 nM) of recombinantly expressed FLAG-AgRP 7A knottin as a competitor. FLAG-AgRP 7A binds with high affinity to αvβ3 integrin and contains an N-terminal epitope tag (DYKDDDDK), allowing cell surface binding to be detecting using an anti-FLAG antibody. Care was taken to allow adequate time for equilibrium binding and to avoid ligand depleting conditions. […] Cells were washed with BPBS and analyzed by flow cytometry on a FACSCalibur instrument (BD Biosciences), and data was quantified using FlowJo software (TreeStar). IC50 values were determined by nonlinear regression analysis using KaleidaGraph (Synergy Software). […]

[3] = parameters: method as in PMID 20124048, PMID 19276378; details: cited from earlier work; for Stability in serum and blood: radiolabeled probes of earlier studies

Molecule | IC50 [2] [nM] | Stability in serum and blood [3] | further results
AF680-labeled EETI 2.5F: EETI 2.5F with one Alexa Fluor 680 dye at the N-terminus (CPRPRGDNPPLTCKQDSDCLAGCVCGPNGFCG; Alexa Fluor 680 on N-terminal amine; 3 disulfides) |  |  | IC50 ([1]; AF680-labeled knottin, read-out: IC50, AF680 labeled): 4 ± 0.2 nM
CC[C@H](C)[C@@H]1NC(=O)[C@@H](NC(=O)CN)CSSC[C@@H]2NC(=O)[C@@H]3CSSC[C@@H](C(=O)N[C@H](C(=O)O)[C@@H](C)O)NC(=O)[C@H](CCC(=O)O)NC(=O)[C@@H]4CSSC[C@H](NC(=O)[C@H]([C@@H](C)CC)NC(=O)[C@H](CSSC[C@H](NC(=O)[C@H](CCCNC(=N)N)NC(=O)CNC(=O)[C@H](Cc5ccc(O)cc5)NC(=O)[C@H](CC(=O)O)NC(=O)[C@H](CCC(=O)O)NC(=O)[C@H](C)NC1=O)C(=O)N[C@@H]([C@@H](C)O)C(=O)N[C@@H](Cc1c[nH]c5ccccc15)C(=O)NCC(=O)NCC(=O)N[C@@H]([C@@H](C)O)C(=O)N1CCC[C@H]1C(=O)N3)NC(=O)CNC(=O)[C@H](CCCNC(=N)N)NC(=O)CNC(=O)[C@H](CCCNC(=N)N)NC2=O)C(=O)N[C@@H](Cc1ccc(O)cc1)C(=O)NCC(=O)N[C@@H](CCCNC(=N)N)C(=O)NCC(=O)N[C@@H](CC(=O)O)C(=O)N[C@@H](CC(N)=O)C(=O)N[C@@H](CC(=O)O)C(=O)N[C@@H](CC(C)C)C(=O)N[C@@H](CCCNC(=N)N)C(=O)N4 [AgTx 7C P22G R24I] (H-GCIAEDYGRCTWGGTPCCRGRGCICYGRGDNDLRCECT-OH; disulfide 2-18, 10-23, 17-37, 25-35) | 8.1 ± 1.6 |  | 
CC[C@H](C)[C@@H]1NC(=O)[C@@H](NC(=O)CN)CSSC[C@@H]2NC(=O)[C@@H]3CSSC[C@@H](C(=O)N[C@H](C(=O)O)[C@@H](C)O)NC(=O)[C@H](CCC(=O)O)NC(=O)[C@@H]4CSSC[C@H](NC(=O)[C@H]([C@@H](C)CC)NC(=O)[C@H](CSSC[C@H](NC(=O)[C@H](CCCNC(=N)N)NC(=O)CNC(=O)[C@H](Cc5ccc(O)cc5)NC(=O)[C@H](CC(=O)O)NC(=O)[C@H](CCC(=O)O)NC(=O)[C@H](C)NC1=O)C(=O)N[C@@H]([C@@H](C)O)C(=O)N[C@@H](Cc1c[nH]c5ccccc15)C(=O)NCC(=O)NCC(=O)N[C@@H]([C@@H](C)O)C(=O)N1CCC[C@H]1C(=O)N3)NC(=O)CNC(=O)CNC(=O)[C@H](CCCNC(=N)N)NC2=O)C(=O)N[C@@H](Cc1ccc(O)cc1)C(=O)NCC(=O)N[C@@H](CCCNC(=N)N)C(=O)NCC(=O)N[C@@H](CC(=O)O)C(=O)N[C@@H](CC(N)=O)C(=O)N[C@@H](CC(=O)O)C(=O)N[C@@H](CC(C)C)C(=O)N[C@@H](CCCNC(=N)N)C(=O)N4 [AgTx 7C ΔR21 P22G R24I] (H-GCIAEDYGRCTWGGTPCCRGGCICYGRGDNDLRCECT-OH; disulfide 2-18, 10-22, 17-36, 24-34) | 5.1 ± 1.6 |  | 
CC[C@H](C)[C@@H]1NC(=O)[C@@H](NC(=O)CN)CSSC[C@@H]2NC(=O)[C@@H]3CSSC[C@@H](C(=O)N[C@H](C(=O)O)[C@@H](C)O)NC(=O)[C@H](CCC(=O)O)NC(=O)[C@@H]4CSSC[C@H](NC(=O)[C@H](CCCNC(=N)N)NC(=O)[C@H](CSSC[C@H](NC(=O)[C@H](CCCNC(=N)N)NC(=O)CNC(=O)[C@H](Cc5ccc(O)cc5)NC(=O)[C@H](CC(=O)O)NC(=O)[C@H](CCC(=O)O)NC(=O)[C@H](C)NC1=O)C(=O)N[C@@H]([C@@H](C)O)C(=O)N[C@@H](Cc1c[nH]c5ccccc15)C(=O)NCC(=O)NCC(=O)N[C@@H]([C@@H](C)O)C(=O)N1CCC[C@H]1C(=O)N3)NC(=O)[C@@H]1CCCN1C(=O)CNC(=O)[C@H](CCCNC(=N)N)NC2=O)C(=O)N[C@@H](Cc1ccc(O)cc1)C(=O)NCC(=O)N[C@@H](CCCNC(=N)N)C(=O)NCC(=O)N[C@@H](CC(=O)O)C(=O)N[C@@H](CC(N)=O)C(=O)N[C@@H](CC(=O)O)C(=O)N[C@@H](CC(C)C)C(=O)N[C@@H](CCCNC(=N)N)C(=O)N4 [AgTx 7C ΔR21] (H-GCIAEDYGRCTWGGTPCCRGPCRCYGRGDNDLRCECT-OH; disulfide 2-18, 10-22, 17-36, 24-34) | 2.3 ± 0.5 |  | IC50 ([1]; unlabeled knottin, read-out: IC50, Unlabeled): 10 ± 1 nM
CC(C)C[C@@H]1NC(=O)[C@@H]2CSSC[C@@H](C(=O)NCC(=O)O)NC(=O)[C@H](Cc3ccccc3)NC(=O)CNC(=O)[C@H](CC(N)=O)NC(=O)[C@@H]3CCCN3C(=O)CNC(=O)[C@@H]3CSSC[C@H](NC(=O)[C@H]([C@@H](C)O)NC(=O)[C@H](CC(C)C)NC(=O)[C@@H]4CCCN4C(=O)[C@@H]4CCCN4C(=O)[C@H](CC(N)=O)NC(=O)[C@H](CC(=O)O)NC(=O)CNC(=O)[C@H](CCCNC(=N)N)NC(=O)[C@@H]4CCCN4C(=O)[C@H](CCCNC(=N)N)NC(=O)[C@@H]4CCCN4C(=O)[C@@H](NC(=O)CN)CSSC[C@H](NC(=O)CNC(=O)[C@H](C)NC1=O)C(=O)N[C@@H](C(C)C)C(=O)N3)C(=O)N[C@@H](CO)C(=O)N[C@@H](CCC(N)=O)C(=O)N[C@@H](CC(=O)O)C(=O)N[C@@H](CO)C(=O)N[C@@H](CC(=O)O)C(=O)N2 [EETI 2.5F] (H-GCPRPRGDNPPLTCSQDSDCLAGCVCGPNGFCG-OH; disulfide 2-24, 14-26, 20-32) |  | remarkably stable in serum and blood | 
CC(C)C[C@@H]1NC(=O)[C@@H]2CSSC[C@@H]3NC(=O)[C@H]([C@@H](C)O)NC(=O)[C@H](C)NC(=O)[C@H](C)NC(=O)[C@@H]4CCCN4C(=O)[C@H](CC(=O)O)NC(=O)[C@H](CSSC[C@H](NC(=O)CN)C(=O)N[C@@H](C(C)C)C(=O)N[C@@H](CCCNC(=N)N)C(=O)N[C@@H](CC(C)C)C(=O)N[C@@H](Cc4c[nH]cn4)C(=O)N[C@@H](CCC(=O)O)C(=O)N[C@@H](CO)C(=O)N2)NC(=O)[C@H](CSSC[C@@H](C(=O)N[C@@H](CCCNC(=N)N)C(=O)O)NC(=O)[C@H](Cc2ccc(O)cc2)NC(=O)[C@@H]2CSSC[C@H](NC(=O)[C@H](Cc4ccc(O)cc4)NC3=O)C(=O)N[C@@H](Cc3ccc(O)cc3)C(=O)NCC(=O)N[C@@H](CCCNC(=N)N)C(=O)NCC(=O)N[C@@H](CC(=O)O)C(=O)N[C@@H](CC(N)=O)C(=O)N[C@@H](CC(=O)O)C(=O)N[C@@H](CC(C)C)C(=O)N[C@@H](CCCNC(=N)N)C(=O)N2)NC(=O)[C@@H]2CCCN2C(=O)[C@H](C(C)C)NC(=O)[C@H](CCC(N)=O)NC(=O)[C@H](CCC(N)=O)NC(=O)CNC1=O [AgRP 7C] (H-GCVRLHESCLGQQVPCCDPAATCYCYGRGDNDLRCYCR-OH; disulfide 2-17, 9-23, 16-37, 25-35) |  | remarkably stable in serum and blood | Metabolic breakdown in the liver, kidneys, and tumor ([3]; compared to EETI 2.5F): higher levels of metabolic breakdown
